ChEMBL document CHEMBL4414548 (J Med Chem, 2019)

Assays:
[1] = Terminal drug concentration in CD40-induced B6 CB17 mouse serum at 25 mg/kg, po BID administered as nanosuspension measured 24 hrs post-last dose; type: ADME, organism-based; details: read-out: Drug uptake
[2] = tested on: Mus musculus; assay: Inhibition of IL12/IL18-induced IFNgamma production in C57BL/6 mouse at 3 mg/kg, po pretreated for 1 hr followed by IL12 stimulation and subsequent IL18 addition and measured after 3 hrs relative to control; type: functional; details: C57BL/6, po
[3] = biological target: T1, Non-receptor tyrosine-protein kinase TYK2 (Homo sapiens, UniProt P29597); assay: Inhibition of TYK2 JH1 domain (unknown origin)
[4] = tested on: Mus musculus; assay: Inhibition of IL12/IL18-induced IFNgamma production in C57BL/6 mouse at 10 mg/kg, po pretreated for 1 hr followed by IL12 stimulation and subsequent IL18 addition and measured after 3 hrs relative to control; type: functional; details: C57BL/6, po
[5] = Drug concentration in IL12/IL18-induced C57BL/6 mouse serum at 1 mg/kg, po pretreated for 1 hr followed by IL12 stimulation and subsequent IL18 addition and measured after 5 hrs; type: ADME, organism-based; details: read-out: Drug uptake
[6] = Half life in mouse liver microsomes; type: ADME, Microsome
[7] = Half life in dog liver microsomes; type: ADME, Canis lupus familiaris, Microsome
[8] = Ratio of drug concentration in IL12/IL18-induced C57BL/6 mouse serum at 3 mg/kg, po to IC50 for TYK2 JH2 domain in mouse whole blood; type: ADME, organism-based; details: in vivo
[9] = Terminal drug concentration in CD40-induced B6 CB17 mouse serum at 250 mg/kg, po BID administered as nanosuspension measured 24 hrs post-last dose; type: ADME, organism-based; details: read-out: Drug uptake
[10] = Partition coefficient, log P of compound by HPLC analysis; type: physicochemical; details: octanol/water
[11] = Drug concentration in IL12/IL18-induced C57BL/6 mouse serum at 3 mg/kg, po pretreated for 1 hr followed by IL12 stimulation and subsequent IL18 addition and measured after 5 hrs; type: ADME, organism-based; details: read-out: Drug uptake
[12] = biological target: T1, Non-receptor tyrosine-protein kinase TYK2; assay: Inhibition of fluorescein-labeled kinase tracer binding to His-TVMV-fused TYK2 JH2 domain (575 to 869 residues) (unknown origin) measured after 90 mins by HTRF assay
[13] = biological target: Tyrosine-protein kinase JAK2 (Homo sapiens, UniProt O60674); assay: Inhibition of JAK2 JH1 domain (unknown origin)
[14] = Terminal drug concentration in CD40-induced B6 CB17 mouse serum at 80 mg/kg, po BID administered as nanosuspension measured 24 hrs post-last dose; type: ADME, organism-based; details: read-out: Drug uptake
[15] = tested on: Mus musculus; assay: Inhibition of IL12/IL18-induced IFNgamma production in C57BL/6 mouse at 0.3 mg/kg, po pretreated for 1 hr followed by IL12 stimulation and subsequent IL18 addition and measured after 3 hrs relative to control; type: functional; details: C57BL/6, po
[16] = biological target: Non-receptor tyrosine-protein kinase TYK2 (Mus musculus, UniProt Q9R117); assay: Inhibition of TYK2 JH2 domain in mouse whole blood assessed as inhibition of IFNalpha-induced STAT1 phosphorylation preincubated for 1 hr followed by IFNalpha stimulation and measured after 15 mins by fluorescence assay; type: tissue-based
[17] = Half life in rat liver microsomes; type: ADME, Microsome
[18] = tested on: Mus musculus; assay: Inhibition of IL12/IL18-induced IFNgamma production in C57BL/6 mouse at 1 mg/kg, po pretreated for 1 hr followed by IL12 stimulation and subsequent IL18 addition and measured after 3 hrs relative to control; type: functional; details: C57BL/6, po
[19] = Ratio of drug concentration in IL12/IL18-induced C57BL/6 mouse serum at 1 mg/kg, po to IC50 for TYK2 JH2 domain in mouse whole blood; type: ADME, organism-based; details: in vivo
[20] = Half life in cynomolgus monkey liver microsomes; type: ADME, Macaca fascicularis, Microsome
[21] = Half life in human liver microsomes; type: ADME, Microsome
[22] = Drug concentration in IL12/IL18-induced C57BL/6 mouse serum at 10 mg/kg, po pretreated for 1 hr followed by IL12 stimulation and subsequent IL18 addition and measured after 5 hrs; type: ADME, organism-based; details: read-out: Drug uptake
[23] = biological target: T1, Non-receptor tyrosine-protein kinase TYK2; assay: Inhibition of TYK2 JH2 domain in human whole blood assessed as inhibition of IFNalpha-induced STAT5 phosphorylation preincubated for 1 hr followed by IFNalpha stimulation and measured after 15 mins by fluorescence assay; type: tissue-based
[24] = Ratio of drug concentration in IL12/IL18-induced C57BL/6 mouse serum at 10 mg/kg, po to IC50 for TYK2 JH2 domain in mouse whole blood; type: ADME, organism-based; details: in vivo
[25] = Ratio of drug concentration in IL12/IL18-induced C57BL/6 mouse serum at 0.3 mg/kg, po to IC50 for TYK2 JH2 domain in mouse whole blood; type: ADME, organism-based; details: in vivo
[26] = Drug metabolism in C57BL/6 mouse plasma assessed as amide formation at 0.3 to 10 mg/kg, po; type: ADME, organism-based; details: in vivo
[27] = biological target: JAK1/TYK2 (Homo sapiens, UniProt P23458+P29597); assay: Inhibition of TYK2/JAK1 in IFNalpha-stimulated human Kit225 cells by steady-glo luciferase assay
[28] = Cmax in mouse at 10 mg/kg, po after 7 hrs; type: ADME, organism-based; parameters: dose 10 mg/kg, route oral; details: in vivo
[29] = Efflux ratio of permeability in human Caco2; type: ADME, cell-based; details: Caco-2
[30] = biological target: Tyrosine-protein kinase JAK1 (Homo sapiens, UniProt P23458); assay: Inhibition of JAK1 JH1 domain (unknown origin)
[31] = biological target: T1, Non-receptor tyrosine-protein kinase TYK2; assay: Inhibition of TYK2 JH2 (unknown origin) by morrison titration assay; details: read-out: Ki(app)
[32] = AUClast in mouse at 10 mg/kg, po after 7 hrs; type: ADME, organism-based; parameters: time < 7 hr, dose 10 mg/kg, route oral; details: in vivo
[33] = Drug concentration in IL12/IL18-induced C57BL/6 mouse serum at 0.3 mg/kg, po pretreated for 1 hr followed by IL12 stimulation and subsequent IL18 addition and measured after 5 hrs; type: ADME, organism-based; details: read-out: Drug uptake
[34] = Permeability across apical to basolateral side in human Caco2 cells; type: ADME, cell-based; details: Caco-2, read-out: permeability

T1 sequence (P29597 whole entry, the tested form may be a part): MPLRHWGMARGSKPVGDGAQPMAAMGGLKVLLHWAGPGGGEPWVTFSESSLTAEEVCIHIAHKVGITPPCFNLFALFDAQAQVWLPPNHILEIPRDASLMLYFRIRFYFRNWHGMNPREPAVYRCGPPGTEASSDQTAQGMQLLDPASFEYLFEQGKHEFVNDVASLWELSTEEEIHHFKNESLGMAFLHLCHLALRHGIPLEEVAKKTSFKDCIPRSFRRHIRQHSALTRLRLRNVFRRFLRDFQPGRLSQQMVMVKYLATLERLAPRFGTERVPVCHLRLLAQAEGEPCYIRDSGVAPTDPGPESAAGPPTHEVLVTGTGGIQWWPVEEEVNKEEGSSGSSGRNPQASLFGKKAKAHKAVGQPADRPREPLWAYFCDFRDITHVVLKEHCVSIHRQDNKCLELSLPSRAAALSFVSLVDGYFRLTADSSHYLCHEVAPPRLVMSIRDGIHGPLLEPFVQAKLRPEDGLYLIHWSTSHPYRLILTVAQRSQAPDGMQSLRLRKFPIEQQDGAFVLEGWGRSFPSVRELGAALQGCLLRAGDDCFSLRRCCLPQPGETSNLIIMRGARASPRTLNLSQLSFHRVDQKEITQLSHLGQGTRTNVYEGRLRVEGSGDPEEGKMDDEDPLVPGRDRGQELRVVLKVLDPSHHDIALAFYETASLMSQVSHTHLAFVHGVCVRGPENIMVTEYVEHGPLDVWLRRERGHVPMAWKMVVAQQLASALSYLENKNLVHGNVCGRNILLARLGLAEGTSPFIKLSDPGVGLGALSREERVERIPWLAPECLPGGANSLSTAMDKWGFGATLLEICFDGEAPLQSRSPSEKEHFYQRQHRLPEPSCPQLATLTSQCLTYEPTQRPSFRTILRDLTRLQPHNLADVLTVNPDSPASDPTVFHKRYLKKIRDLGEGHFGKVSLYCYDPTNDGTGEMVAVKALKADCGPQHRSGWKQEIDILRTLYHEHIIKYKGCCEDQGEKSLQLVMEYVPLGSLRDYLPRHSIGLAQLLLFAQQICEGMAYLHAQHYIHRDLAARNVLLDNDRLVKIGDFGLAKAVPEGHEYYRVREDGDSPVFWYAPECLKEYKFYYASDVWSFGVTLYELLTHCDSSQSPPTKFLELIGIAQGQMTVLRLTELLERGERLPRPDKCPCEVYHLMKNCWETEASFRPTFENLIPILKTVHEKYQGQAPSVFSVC
Chain of Tyrosine-protein kinase JAK2 (O60674 whole entry, the tested form may be a part): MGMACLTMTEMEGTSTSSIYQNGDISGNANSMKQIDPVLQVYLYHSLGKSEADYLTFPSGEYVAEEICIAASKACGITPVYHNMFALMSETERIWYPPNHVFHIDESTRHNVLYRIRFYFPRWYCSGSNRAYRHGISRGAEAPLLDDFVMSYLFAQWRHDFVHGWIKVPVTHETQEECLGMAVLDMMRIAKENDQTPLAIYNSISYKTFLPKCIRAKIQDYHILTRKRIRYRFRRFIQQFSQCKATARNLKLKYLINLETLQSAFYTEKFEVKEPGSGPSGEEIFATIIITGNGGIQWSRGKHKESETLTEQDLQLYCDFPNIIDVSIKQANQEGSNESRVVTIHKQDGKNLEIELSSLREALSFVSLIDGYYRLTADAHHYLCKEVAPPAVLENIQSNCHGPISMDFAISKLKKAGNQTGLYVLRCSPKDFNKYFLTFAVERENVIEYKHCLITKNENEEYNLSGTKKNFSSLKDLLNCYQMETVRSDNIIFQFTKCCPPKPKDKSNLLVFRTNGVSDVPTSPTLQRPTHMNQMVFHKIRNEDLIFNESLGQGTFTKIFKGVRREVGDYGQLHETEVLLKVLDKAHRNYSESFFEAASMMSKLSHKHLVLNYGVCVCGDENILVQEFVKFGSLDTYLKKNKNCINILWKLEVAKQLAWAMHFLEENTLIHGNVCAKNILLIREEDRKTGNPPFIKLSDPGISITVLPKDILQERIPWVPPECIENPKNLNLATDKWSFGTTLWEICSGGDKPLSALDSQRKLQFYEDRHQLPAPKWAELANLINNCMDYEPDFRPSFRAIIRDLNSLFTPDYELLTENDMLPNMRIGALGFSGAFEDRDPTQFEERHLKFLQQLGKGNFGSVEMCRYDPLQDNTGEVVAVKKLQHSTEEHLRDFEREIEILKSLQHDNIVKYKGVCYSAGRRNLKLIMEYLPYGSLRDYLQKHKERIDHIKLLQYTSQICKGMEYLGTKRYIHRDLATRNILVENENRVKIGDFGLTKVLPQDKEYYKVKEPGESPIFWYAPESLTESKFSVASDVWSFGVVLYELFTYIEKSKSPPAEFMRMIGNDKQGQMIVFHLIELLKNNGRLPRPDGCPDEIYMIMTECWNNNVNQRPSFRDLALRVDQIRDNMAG
Chain of JAK1/TYK2 (P23458 whole entry): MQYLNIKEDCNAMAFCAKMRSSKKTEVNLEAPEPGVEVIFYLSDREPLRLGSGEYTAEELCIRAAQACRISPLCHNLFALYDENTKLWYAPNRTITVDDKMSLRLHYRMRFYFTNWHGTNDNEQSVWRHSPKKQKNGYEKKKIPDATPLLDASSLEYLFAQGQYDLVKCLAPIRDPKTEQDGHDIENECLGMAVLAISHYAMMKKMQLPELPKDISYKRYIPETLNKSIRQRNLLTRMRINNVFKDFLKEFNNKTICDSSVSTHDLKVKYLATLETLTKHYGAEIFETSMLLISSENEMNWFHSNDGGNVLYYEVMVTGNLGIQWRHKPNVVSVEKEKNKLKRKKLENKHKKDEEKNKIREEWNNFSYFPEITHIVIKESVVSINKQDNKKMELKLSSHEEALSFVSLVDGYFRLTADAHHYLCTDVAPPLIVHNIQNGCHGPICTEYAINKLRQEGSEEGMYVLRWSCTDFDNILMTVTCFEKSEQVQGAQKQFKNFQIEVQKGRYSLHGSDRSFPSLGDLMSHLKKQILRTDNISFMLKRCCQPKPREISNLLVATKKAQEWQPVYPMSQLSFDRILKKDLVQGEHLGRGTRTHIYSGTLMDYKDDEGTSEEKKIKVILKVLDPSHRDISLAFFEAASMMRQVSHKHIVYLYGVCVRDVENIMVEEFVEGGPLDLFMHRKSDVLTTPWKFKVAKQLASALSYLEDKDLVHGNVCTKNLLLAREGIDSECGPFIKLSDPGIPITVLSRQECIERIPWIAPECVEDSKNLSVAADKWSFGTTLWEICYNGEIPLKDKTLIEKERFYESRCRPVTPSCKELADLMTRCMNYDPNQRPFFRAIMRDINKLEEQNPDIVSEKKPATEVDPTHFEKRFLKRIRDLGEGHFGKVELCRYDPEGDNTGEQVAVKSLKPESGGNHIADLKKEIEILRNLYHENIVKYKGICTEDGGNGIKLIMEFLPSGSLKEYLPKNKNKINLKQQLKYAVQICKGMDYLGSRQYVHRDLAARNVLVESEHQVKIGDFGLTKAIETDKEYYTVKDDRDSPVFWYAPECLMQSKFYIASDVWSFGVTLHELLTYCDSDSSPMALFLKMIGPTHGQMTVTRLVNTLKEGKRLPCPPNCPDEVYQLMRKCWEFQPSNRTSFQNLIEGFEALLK
Chain of JAK1/TYK2 (P29597 whole entry): as the sequence (P29597 whole entry, the tested form may be a part) above
Chain of Tyrosine-protein kinase JAK1 (P23458 whole entry, the tested form may be a part): as the sequence (P23458 whole entry) above
Chain of Non-receptor tyrosine-protein kinase TYK2 (Mus musculus, UniProt Q9R117) (Q9R117 whole entry, the tested form may be a part): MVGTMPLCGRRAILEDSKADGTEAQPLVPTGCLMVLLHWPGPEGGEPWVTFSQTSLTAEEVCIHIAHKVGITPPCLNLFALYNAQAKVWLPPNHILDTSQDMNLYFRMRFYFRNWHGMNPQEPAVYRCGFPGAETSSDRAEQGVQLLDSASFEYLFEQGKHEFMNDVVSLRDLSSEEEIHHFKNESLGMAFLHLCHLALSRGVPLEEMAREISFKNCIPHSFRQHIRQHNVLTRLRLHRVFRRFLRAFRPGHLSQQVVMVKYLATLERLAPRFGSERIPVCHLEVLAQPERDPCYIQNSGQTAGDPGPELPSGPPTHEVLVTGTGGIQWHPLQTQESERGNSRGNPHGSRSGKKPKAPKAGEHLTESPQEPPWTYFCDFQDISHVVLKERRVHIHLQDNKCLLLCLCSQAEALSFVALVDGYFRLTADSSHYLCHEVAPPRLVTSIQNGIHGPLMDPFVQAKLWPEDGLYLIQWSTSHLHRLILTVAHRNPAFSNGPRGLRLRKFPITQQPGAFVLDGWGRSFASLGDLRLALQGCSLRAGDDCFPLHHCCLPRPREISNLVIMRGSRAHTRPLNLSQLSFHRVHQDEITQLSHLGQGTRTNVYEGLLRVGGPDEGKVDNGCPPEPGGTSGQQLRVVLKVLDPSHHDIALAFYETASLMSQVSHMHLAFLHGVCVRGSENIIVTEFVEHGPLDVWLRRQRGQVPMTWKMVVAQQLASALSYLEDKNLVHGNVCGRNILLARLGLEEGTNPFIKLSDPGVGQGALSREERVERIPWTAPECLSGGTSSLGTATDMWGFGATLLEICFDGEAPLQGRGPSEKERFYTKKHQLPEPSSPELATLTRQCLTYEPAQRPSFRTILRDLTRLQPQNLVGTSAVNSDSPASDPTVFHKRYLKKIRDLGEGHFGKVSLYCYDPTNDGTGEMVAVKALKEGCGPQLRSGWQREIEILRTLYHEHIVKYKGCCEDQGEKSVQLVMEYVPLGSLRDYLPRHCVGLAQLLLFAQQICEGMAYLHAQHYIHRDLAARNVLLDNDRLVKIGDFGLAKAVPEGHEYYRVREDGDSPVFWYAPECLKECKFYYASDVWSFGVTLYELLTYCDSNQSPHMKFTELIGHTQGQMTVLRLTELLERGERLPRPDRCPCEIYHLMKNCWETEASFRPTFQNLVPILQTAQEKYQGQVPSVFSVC

[2H]C([2H])([2H])NC(=O)c1nnc(Nc2ccccn2)cc1Nc1ccccc1S(C)(=O)=O
concentration at 24 h [1]: 12 nM | inhibition in vivo at 3 mg/kg [2]: 77% | IC50 [3]: > 50000 nM | inhibition in vivo at 10 mg/kg [4]: 91% | concentration at 5 h [5]: 69 nM | half-life [6]: 46 min | half-life [7]: 19 min | Ratio [8]: 1 | concentration at 24 h [9]: 77 nM | logP [10]: 2.45 | concentration at 5 h [11]: 133 nM | IC50 [12]: 0.53 nM | IC50 [13]: > 50000 nM | concentration at 24 h [14]: 67 nM | inhibition in vivo at 0.3 mg/kg [15]: 13% | IC50 [16]: 120 nM | half-life [17]: 49 min | inhibition in vivo at 1 mg/kg [18]: 56% | Ratio [19]: 0.5 | half-life [20]: 4 min | half-life [21]: 48 min | concentration at 5 h [22]: 503 nM | IC50 [23]: 130 nM | Ratio [24]: 4 | Ratio [25]: 0.2 | Drug metabolism [26]: Metabolite_Notdetected | IC50 [27]: 0.53 nM | Cmax [28]: 10500 nM | efflux ratio [29]: 2.1 | IC50 [30]: > 40000 nM | Ki [31]: 0.07 nM | AUC(0-t) at 7 h [32]: 24.3 µM·h | concentration at 5 h [33]: 24 nM | Papp A→B [34]: 28 ×10⁻⁶ cm/s
